# According to ChEMBL document CHEMBL1201862, “PubChem BioAssay data set” (2004):
# Active and inactive are the calls of the source.
# Assays:
# [1] = target: T1, Voltage-dependent T-type calcium channel subunit alpha-1H (Homo sapiens, UniProt O95180); experiment: human CACNA1H calcium influx blockade – cell-based, synthetic library set 2, HEK293 HH8, Fluo-4, SAR follow-up (AID 493023); type: functional
# [2] = target: T2, Tyrosine-protein phosphatase non-receptor type 7 (Homo sapiens, UniProt P35236); experiment: inhibition of hematopoietic tyrosine phosphatase HePTP – biochemical, set 2, SAR follow-up (AID 449736); type: functional
# T2 sequence (P35236 whole entry): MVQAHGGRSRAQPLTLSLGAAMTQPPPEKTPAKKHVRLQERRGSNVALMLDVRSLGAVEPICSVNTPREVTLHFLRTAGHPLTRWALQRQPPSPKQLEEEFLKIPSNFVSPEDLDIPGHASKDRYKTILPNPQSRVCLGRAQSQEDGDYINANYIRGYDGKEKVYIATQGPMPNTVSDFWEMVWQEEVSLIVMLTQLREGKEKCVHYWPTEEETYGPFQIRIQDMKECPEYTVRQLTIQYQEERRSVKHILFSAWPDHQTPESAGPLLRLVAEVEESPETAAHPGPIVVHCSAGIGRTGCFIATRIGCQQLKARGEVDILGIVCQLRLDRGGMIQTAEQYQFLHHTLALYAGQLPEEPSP
# [3] = THP-1 cell cytotoxicity, dose response, cytotoxicity control for non-replicating M. tuberculosis project (AID 489025); type: functional
# [4] = HepG2 cell cytotoxicity, dose response, cytotoxicity control for non-replicating M. tuberculosis project (AID 489018); type: functional; settings: Mycobacterium tuberculosis
# cells [5] = type: functional
# Hexokinase = Hexokinase (Trypanosoma brucei, UniProt Q38C41); experiment: Confirmation assay for inhibitors of Trypanosoma brucei hexokinase 1-Analogue-first series. [Related pubchem assays (depositor defined):AID1430, AID1632, AID2516, AID2560, AID2579, AID2600, AID449725, AID492951]; type: functional
# Caspase-3 = target: T3, Caspase-3 (Homo sapiens, UniProt P42574); experiment: activation of caspase-3 zymogen – biochemical, absorbance, dose response (AID 489014)
# T3 sequence (P42574 whole entry): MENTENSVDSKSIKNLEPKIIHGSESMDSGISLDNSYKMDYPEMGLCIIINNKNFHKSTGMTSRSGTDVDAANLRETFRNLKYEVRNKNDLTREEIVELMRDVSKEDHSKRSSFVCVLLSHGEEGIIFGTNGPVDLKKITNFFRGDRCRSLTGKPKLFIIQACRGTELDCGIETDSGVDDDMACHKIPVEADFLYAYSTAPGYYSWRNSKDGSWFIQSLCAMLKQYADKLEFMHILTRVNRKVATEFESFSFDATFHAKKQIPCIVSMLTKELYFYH
# Bcl-2-like protein 1 = Bcl-2-like protein 1 (Homo sapiens, UniProt Q07817); experiment: blockers of BCLXL peptide binding – biochemical, fluorescence polarization, 1536-well, selectivity assay for MCL1 inhibitor project, dose response (AID 2218)
# Chain of Bcl-2-like protein 1 (Q07817 whole entry): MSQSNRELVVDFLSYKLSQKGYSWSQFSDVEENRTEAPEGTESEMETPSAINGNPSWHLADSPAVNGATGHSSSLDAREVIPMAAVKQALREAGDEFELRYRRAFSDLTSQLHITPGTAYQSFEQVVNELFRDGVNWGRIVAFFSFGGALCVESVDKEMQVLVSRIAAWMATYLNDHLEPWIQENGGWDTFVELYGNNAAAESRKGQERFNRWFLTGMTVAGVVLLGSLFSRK
# Caspase-7 = Caspase-7 (Homo sapiens, UniProt P55210); experiment: activation of caspase-7 zymogen – biochemical, absorbance, counter-screen for procaspase-3 activator project, dose response (AID 489013)
# [6] = target: Induced myeloid leukemia cell differentiation protein Mcl-1 (Homo sapiens, UniProt Q07820); experiment: blockers of MCL1 binding to BIM peptide – biochemical, fluorescence polarization, BIM-BH3 peptide, 1536-well, dose response (AID 2217)
# [7] = Luminescence Cell-Based Dose Retest to Confirm Inhibitors of Cancer Stem Cells. [Related pubchem assays (depositor defined):AID2717, AID2721]; type: functional; settings: Homo sapiens
# [8] = target: T4, RNA-binding protein pos-1 (Caenorhabditis elegans, UniProt G5EF15); experiment: disruptors of C. elegans POS-1 RNA interaction – biochemical, fluorescence polarization, dose response (AID 1964);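 note: purified POS-1 fused to maltose binding protein made in E. coli; potency of compounds blocking POS-1 binding to fluorescent RNA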
# T4 sequence (G5EF15 whole entry): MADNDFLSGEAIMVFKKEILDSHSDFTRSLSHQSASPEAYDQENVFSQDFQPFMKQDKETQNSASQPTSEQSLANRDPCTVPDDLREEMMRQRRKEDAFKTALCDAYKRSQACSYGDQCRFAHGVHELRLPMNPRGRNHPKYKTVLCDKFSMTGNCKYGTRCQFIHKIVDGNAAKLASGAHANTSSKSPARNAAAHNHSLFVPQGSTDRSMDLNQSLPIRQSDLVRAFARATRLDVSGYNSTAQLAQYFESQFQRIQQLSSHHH
# [9] = target: T5, Zinc finger protein mex-5 (Caenorhabditis elegans, UniProt Q9XUB2); experiment: potency of MEX-5 RNA-binding blockers – biochemical, C. elegans, fluorescence polarization, dose response (AID 1960)
# T5 sequence (Q9XUB2 whole entry): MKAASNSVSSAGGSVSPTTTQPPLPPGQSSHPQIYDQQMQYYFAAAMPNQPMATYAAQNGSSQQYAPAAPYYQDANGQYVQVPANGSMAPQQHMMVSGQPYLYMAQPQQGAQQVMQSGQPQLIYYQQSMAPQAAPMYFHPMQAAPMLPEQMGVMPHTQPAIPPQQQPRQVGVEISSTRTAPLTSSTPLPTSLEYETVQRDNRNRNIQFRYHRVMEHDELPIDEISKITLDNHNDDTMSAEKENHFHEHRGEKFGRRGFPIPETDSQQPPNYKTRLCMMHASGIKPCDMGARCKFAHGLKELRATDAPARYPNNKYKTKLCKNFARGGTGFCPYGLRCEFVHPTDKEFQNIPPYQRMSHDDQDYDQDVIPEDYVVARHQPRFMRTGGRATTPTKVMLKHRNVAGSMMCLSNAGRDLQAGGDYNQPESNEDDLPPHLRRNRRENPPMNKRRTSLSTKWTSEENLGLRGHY
# [10] = target: T6, Heat shock factor protein 1 (Mus musculus, UniProt P38532); experiment: decrease of HSF1-responsive luciferase luminescence – cell-based, NIH3T3, dose retest, confirmation (AID 2382); type: functional;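 note: NIH3T3 fibroblasts with HSF1-driven luciferase reporter stressed by proteasome inhibitor MG132; luminescence from HSF1-driven luciferase expression after 8 hours of MG132 stress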
# T6 sequence (P38532 whole entry): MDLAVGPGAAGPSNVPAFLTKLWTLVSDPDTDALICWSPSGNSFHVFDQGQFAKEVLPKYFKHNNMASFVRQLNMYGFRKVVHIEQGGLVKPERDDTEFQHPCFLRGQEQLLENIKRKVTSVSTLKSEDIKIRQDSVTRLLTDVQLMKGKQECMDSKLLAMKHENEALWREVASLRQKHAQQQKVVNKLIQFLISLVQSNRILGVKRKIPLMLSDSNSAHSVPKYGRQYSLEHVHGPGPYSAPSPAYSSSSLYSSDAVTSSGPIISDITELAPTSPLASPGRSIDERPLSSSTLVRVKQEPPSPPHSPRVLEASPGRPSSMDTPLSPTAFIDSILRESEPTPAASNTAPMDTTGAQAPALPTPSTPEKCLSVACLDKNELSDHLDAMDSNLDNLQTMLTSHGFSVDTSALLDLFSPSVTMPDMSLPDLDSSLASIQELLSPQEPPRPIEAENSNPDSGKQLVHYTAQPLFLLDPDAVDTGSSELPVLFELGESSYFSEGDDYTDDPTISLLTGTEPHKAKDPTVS
# [11] = Luminescence Cell-Based Dose Confirmation HTS to Identify Inhibitors of Platelet Dense Granule Release. [Related pubchem assays: 1663 (Primary HTS), 1678 (Summary of Project)]; type: functional
# [12] = target: T7, Alkaline phosphatase, tissue-nonspecific isozyme (Homo sapiens, UniProt P05186); experiment: TNAP enzyme inhibition by screening hits, dose response, selectivity assay for mouse IAP inhibitor project, biochemical, human TNAP, uHTS hits (AID 488906); type: functional
# T7 sequence (P05186 whole entry): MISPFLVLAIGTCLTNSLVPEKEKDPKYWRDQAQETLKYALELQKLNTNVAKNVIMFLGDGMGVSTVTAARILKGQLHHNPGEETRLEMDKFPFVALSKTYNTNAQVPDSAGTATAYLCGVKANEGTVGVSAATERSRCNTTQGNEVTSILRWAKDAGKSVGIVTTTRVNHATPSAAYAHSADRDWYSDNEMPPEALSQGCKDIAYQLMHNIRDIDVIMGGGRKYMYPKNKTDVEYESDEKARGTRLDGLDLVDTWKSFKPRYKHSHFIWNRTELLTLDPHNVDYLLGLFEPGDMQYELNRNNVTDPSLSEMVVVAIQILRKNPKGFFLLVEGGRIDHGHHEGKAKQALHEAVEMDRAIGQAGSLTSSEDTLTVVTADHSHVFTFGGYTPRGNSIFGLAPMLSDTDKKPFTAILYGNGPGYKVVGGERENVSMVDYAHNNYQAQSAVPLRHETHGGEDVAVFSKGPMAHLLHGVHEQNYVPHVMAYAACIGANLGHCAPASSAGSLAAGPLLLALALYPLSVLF
# [13] = target: Intestinal-type alkaline phosphatase (Homo sapiens, UniProt P09923); experiment: activation of human intestinal alkaline phosphatase – biochemical, dose response (AID 488873); type: functional
# Chain of Intestinal-type alkaline phosphatase (Homo sapiens, UniProt P09923) (P09923 whole entry): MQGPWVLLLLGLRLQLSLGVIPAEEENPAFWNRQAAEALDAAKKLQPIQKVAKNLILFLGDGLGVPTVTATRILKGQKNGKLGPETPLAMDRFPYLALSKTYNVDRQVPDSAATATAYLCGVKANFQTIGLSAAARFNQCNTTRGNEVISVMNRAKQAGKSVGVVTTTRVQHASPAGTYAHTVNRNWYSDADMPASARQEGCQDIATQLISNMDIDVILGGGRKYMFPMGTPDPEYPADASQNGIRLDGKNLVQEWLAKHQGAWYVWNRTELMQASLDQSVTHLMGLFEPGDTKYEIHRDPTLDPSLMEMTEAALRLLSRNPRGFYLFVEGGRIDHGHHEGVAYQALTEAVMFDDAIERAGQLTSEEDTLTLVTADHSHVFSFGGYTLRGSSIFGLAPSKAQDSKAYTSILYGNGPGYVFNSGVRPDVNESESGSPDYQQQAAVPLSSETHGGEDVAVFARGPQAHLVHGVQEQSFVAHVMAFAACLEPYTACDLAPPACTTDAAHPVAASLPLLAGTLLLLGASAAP
# [14] = target: Luciferin 4-monooxygenase (Photinus pyralis, UniProt P08659); experiment: inhibition of purified Photinus pyralis luciferase – biochemical, luminescence, dose response (AID 1891)
# Chain of Luciferin 4-monooxygenase (P08659 whole entry): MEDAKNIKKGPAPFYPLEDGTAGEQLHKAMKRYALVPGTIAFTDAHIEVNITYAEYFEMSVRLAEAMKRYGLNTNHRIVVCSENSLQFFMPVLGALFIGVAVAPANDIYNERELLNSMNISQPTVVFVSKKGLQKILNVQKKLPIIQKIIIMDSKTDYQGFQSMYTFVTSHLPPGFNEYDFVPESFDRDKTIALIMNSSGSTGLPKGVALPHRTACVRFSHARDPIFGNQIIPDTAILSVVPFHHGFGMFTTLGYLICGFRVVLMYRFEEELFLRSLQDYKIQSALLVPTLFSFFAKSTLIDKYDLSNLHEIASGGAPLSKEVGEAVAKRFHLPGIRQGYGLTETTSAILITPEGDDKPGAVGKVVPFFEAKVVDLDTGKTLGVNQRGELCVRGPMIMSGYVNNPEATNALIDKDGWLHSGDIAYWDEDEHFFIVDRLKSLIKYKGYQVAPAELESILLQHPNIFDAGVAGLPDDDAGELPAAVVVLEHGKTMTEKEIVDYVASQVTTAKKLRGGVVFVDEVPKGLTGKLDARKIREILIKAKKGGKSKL
# [15] = target: Intestinal-type alkaline phosphatase (Mus musculus, UniProt P24822); experiment: PubChem AID 488785; type: functional
# Chain of Intestinal-type alkaline phosphatase (Mus musculus, UniProt P24822) (P24822 whole entry): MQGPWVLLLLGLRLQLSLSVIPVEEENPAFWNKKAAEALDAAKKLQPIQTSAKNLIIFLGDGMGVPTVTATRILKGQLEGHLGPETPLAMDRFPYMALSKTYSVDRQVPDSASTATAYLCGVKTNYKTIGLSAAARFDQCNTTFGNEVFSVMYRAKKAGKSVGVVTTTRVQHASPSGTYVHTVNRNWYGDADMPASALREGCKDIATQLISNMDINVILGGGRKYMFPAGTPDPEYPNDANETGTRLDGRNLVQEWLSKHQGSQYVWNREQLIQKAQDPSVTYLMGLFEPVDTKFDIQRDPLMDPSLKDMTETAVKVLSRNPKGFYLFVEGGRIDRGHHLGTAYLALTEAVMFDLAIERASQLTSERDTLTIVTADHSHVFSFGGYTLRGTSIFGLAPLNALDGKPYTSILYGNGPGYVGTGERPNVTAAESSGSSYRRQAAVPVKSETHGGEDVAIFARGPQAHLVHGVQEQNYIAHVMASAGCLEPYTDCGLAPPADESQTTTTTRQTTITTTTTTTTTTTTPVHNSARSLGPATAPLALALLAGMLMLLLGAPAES
# [16] = target: T1, Voltage-dependent T-type calcium channel subunit alpha-1H; experiment: human CACNA1H calcium influx blockade – cell-based, synthetic library set 1, calcium flux (AID 493022); type: functional
# [17] = target: T8, Runt-related transcription factor 1/Core-binding factor subunit beta (Homo sapiens, UniProt Q01196+Q13951); experiment: disruptors of Runt domain/CBFb-SMMHC interaction – biochemical, FRET, Cerulean-Runt, Venus-CBFb-SMMHC, uHTS, […] (AID 1434); type: protein assay
# T8 sequence (Q01196 whole entry, the tested form may be a part): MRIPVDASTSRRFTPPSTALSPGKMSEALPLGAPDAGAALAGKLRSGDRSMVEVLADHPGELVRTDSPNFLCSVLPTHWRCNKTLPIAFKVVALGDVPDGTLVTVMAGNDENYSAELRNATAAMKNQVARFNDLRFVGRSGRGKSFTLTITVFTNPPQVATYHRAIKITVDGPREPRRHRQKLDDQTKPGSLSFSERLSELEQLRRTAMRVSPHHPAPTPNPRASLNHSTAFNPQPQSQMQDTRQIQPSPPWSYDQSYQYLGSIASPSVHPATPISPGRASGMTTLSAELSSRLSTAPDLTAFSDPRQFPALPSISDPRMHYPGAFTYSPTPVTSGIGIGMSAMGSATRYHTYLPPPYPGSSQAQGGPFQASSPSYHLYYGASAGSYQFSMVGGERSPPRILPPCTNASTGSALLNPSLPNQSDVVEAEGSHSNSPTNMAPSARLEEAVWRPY
# T8 sequence (Q13951 whole entry, the tested form may be a part): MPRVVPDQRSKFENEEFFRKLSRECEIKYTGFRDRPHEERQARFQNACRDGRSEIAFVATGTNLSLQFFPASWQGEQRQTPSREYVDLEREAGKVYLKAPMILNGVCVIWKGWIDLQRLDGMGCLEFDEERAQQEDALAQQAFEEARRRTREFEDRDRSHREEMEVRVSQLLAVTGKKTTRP
# [18] = target: T8, Runt-related transcription factor 1/Core-binding factor subunit beta; experiment: Runt domain/CBFb-SMMHC interaction disruptors – biochemical, TR-FRET (AID 1438); type: protein assay
# [19] = alpha-synuclein stem-loop luciferase translation blockers – H4 neuroglioma cells, luminescence, confirmation (AID 1988); type: functional, cell-based
# [20] = Luminescence Cell-Based Dose Confirmation HTS to Identify Inhibitors of 5'UTR Stem-Loop Driven Alpha-Synuclein mRNA Translation in H4 Neuroglioblastoma Cells. [Related pubchem assays: 1827 (Project Summary), 1813 (Primary HTS)]; type: functional
# cells [21] = type: functional, cell-based
# [22] = luciferase reporter signal reduction – luminescence, H4-C neuroglioblastoma cells, dose response (AID 2458); type: functional, cell-based;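 note: H4 neuroglioblastoma cells stably carrying a luciferase reporter gene fusion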
# [23] = Luminescence Cell-Based Dose Response HTS to Identify Activators of 5'UTR Stem-Loop Driven Prion Protein mRNA Translation in H4-C Neuroglioblastoma Cells. [Related pubchem assays: 1829 (Project Summary), 1814 (Primary HTS)]; type: functional
# [24] = alpha-synuclein stem-loop translation blockers – luminescence, H4 neuroglioblastoma cells, dose confirmation, confirmation (AID 2454); type: functional, cell-based;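 note: H4 neuroglioblastoma cells carrying an alpha-synuclein 5'UTR luciferase reporter; potency for inhibition of the luciferase signal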
# [25] = luciferase reporter signal suppression in cells – H4 neuroglioma cells, luminescence, dose response (AID 1990); type: functional, cell-based
# [26] = Luminescence Cell-Based Dose Response HTS to Identify Inhibitors of 5'UTR Stem-Loop Driven Prion Protein mRNA Translation in H4 Neuroglioblastoma Cells. [Related pubchem assays: 1827 (Project Summary), 1813 (Primary HTS)]; type: functional
# [27] = Luminescence Cell-Based Dose Response HTS to Identify Inhibitors of Luciferase Translation or Activity in H4-C Neuroglioblastoma Cells. [Related pubchem assays: 1813 (Primary HTS), 1827 (Project Summary)]; type: functional
# [28] = Luminescence Cell-Based Dose Retest to Confirm Activators of 5'UTR Stem-Loop Driven Alpha-Synuclein mRNA Translation in H4 Neuroglioblastoma Cells. [Related pubchem assays (depositor defined):AID1813, AID1829]; type: functional
# [29] = HEK-293T viability loss after treatment – luminescence, T-cell screen hits, cytotoxicity control for TCR NF-kB inhibitor project, dose response (AID 489026); type: functional, cell-based;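 note: cells exposed to compound about 14 hours before the viability readout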
# [30] = Luminescence Cell-Based Dose Response HTS to Identify Activators of Luciferase Translation or Activity in H4-C Neuroglioblastoma Cells. [Related pubchem assays: 1829 (Project Summary), 1814 (Primary HTS)]; type: functional
# [31] = Luminescence Cell-Based Dose HTS Response to Identify Inhibitors of 5'UTR Stem-Loop Driven Prion Protein mRNA Translation in H4-C Neuroglioblastoma Cells. [Related pubchem assays (depositor defined):AID1814, AID1827]; type: functional
# 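Throughout, for AC50: cells exposed to compound for roughly 70 hours or longer before luminescence read.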
# T1 sequence (O95180 whole entry): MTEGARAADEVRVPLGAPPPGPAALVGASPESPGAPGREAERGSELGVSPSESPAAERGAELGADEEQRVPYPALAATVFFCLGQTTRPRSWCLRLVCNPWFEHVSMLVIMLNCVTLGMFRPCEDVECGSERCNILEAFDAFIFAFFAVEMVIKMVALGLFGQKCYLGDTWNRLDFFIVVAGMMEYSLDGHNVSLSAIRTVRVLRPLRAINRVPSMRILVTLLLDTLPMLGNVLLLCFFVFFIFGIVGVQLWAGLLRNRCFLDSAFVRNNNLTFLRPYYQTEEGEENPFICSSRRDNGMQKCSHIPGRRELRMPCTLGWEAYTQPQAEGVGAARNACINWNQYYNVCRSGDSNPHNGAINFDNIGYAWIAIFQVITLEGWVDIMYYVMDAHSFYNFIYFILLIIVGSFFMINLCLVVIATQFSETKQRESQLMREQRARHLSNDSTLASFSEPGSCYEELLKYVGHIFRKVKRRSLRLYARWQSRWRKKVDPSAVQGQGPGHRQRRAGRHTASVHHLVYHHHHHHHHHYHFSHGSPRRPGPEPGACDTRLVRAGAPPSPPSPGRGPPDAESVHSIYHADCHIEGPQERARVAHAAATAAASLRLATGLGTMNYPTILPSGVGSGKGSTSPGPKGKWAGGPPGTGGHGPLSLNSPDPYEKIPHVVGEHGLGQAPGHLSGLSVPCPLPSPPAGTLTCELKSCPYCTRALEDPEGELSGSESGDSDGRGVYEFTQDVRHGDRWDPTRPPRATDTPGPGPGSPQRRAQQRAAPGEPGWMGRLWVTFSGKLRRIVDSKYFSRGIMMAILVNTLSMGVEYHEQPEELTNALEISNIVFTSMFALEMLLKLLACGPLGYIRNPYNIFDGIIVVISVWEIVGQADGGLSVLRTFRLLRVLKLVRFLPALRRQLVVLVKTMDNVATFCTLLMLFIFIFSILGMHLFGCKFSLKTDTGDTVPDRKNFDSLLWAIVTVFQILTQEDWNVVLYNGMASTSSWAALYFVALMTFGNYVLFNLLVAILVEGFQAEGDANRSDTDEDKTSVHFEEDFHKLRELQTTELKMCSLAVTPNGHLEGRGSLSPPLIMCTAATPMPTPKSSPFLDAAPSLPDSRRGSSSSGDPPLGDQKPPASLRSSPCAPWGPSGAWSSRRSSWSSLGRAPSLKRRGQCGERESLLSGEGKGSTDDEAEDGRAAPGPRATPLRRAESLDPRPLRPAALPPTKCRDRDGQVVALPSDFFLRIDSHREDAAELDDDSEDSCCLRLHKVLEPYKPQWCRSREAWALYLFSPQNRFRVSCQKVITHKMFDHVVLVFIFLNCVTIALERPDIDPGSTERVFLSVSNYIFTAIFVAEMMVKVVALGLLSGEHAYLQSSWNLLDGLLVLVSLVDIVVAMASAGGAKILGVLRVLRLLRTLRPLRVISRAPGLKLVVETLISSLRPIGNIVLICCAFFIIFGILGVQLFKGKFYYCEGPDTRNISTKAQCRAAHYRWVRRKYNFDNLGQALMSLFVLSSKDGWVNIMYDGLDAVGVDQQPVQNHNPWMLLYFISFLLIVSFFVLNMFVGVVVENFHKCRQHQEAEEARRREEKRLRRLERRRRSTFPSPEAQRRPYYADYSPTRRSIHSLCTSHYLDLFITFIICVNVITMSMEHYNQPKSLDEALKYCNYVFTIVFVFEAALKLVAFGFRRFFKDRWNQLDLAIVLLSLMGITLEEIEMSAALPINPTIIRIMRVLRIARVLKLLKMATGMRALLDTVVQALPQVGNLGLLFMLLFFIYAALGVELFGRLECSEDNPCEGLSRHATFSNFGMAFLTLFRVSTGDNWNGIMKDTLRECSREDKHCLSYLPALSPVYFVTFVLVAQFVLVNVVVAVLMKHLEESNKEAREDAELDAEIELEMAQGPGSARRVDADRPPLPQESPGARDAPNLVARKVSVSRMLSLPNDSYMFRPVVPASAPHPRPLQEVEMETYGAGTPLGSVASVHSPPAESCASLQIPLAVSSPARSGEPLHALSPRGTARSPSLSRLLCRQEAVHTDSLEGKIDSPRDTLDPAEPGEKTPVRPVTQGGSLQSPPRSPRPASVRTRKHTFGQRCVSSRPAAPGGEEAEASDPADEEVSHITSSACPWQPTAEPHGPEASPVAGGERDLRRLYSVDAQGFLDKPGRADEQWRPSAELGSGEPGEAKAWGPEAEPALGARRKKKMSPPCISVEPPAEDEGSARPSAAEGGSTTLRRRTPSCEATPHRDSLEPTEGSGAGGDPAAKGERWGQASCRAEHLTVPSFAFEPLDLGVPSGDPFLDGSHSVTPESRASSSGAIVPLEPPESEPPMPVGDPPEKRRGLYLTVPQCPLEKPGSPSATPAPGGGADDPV
smiles,measurement,setting,value
CC(C)(C)CCN1CCC[C@@H](NC(=O)COc2ccccc2Cl)C1,EC50,[1],10 µM (active)
Cc1ccc(-n2c(N)c(C(=O)Nc3ccccc3F)sc2=S)cc1C,IC50,[2],50.5 µM (active)
CCOc1ccc(C(=O)Nc2nc3ccccc3[nH]2)cc1OCC,CC50,[3],> 40 µM (active)
same,CC50,[4],18.8 µM (active)
same,IC50,cells [5],12 µM (active)
O=C(Cn1sc2ccccc2c1=O)Nc1cccc(C(F)(F)F)c1,IC50,Hexokinase,> 25 µM (inactive)
COC(=O)c1ccccc1NCc1cc(=O)oc2cc(O)c(O)cc12,EC50,Caspase-3,> 1.05 µM (active)
same,IC50,Bcl-2-like protein 1,> 109 µM (not active)
same,EC50,Caspase-7,> 85.2 µM (inactive)
same,IC50,[6],> 4.03 µM (active)
same,AC50,[7],6.97 µM (active)
same,EC50,[8],19 µM (inconclusive)
same,EC50,[9],18.4 µM (inconclusive)
CN(C)c1ccc(N=Nc2nc3ccccc3n2C)cc1,EC50,[10],0.429 µM (inconclusive)
same,EC50,[11],0.208 µM (active)
same,IC50,[12],36.9 µM (active)
same,EC50,[13],> 100 µM (inactive)
same,EC50,[14],0.213 µM (active)
same,IC50,[15],27.6 µM (active)
O=C(COc1ccc(F)cc1Cl)Nc1nnc(-c2ccc3c(c2)OCO3)o1,EC50,[16],2.1 µM (active)
N#Cc1c2c(c(NCc3ccco3)n3c1nc1ccccc13)CCC2,IC50,[17],> 100 µM (inactive)
same,IC50,[18],> 100 µM (inactive)
CCOC(=O)COc1cccc2c(=O)n(CC(=O)NCc3ccc(F)cc3)ccc12,EC50,[19],< 0.1 µM (active)
same,EC50,[20],26.6 µM (active)
same,EC50,cells [21],2.36 µM (active)
same,EC50,[22],> 12 µM (inconclusive)
same,EC50,[23],22.4 µM (inconclusive)
same,EC50,[24],1.51 µM (active)
same,EC50,[25],12.6 µM (active)
same,EC50,[26],> 120 µM (not active)
same,EC50,[27],1.36 µM (active)
same,EC50,[28],26.6 µM (inconclusive)
same,IC50,[29],> 80 µM (inactive)
same,EC50,[30],1.36 µM (inconclusive)
same,EC50,[31],22.4 µM (active)
